According to ChEMBL document CHEMBL4483862, “Open-source discovery of chemical leads for next-generation chemoprotective antimalarials” (2018):

System: Plasmodium berghei
Experiment: Luciferase/luciferin-expressing antifolate-resistant parasites were used to infect a culture of HepG2 cells that were pre-incubated with compounds. Infected hepatocytes emit light due to the luciferase reaction. Assay results are presented as the percent inhibition of light emission compared to control. […]
Assay type: functional
Details: sporozoite; for IC90: read-out: LUCIFERASE INFECTION ASSAY - IC90

| SMILES | IC90 | also measured |
| --- | --- | --- |
| CCOC(=O)c1c(-c2ccccc2)oc2ccc(OCC(O)CNCCN(C)C)cc12 (stereo not given) | > 10 µM | IC50 (PBLUC_HILL_SLOPE 9.38, PBLUC_R_SQUARED 0.614, read-out: LUCIFERASE INFECTION ASSAY - IC50): 8.91 µM |
| Cc1c(C(=O)NCc2ccc(Cl)c(Cl)c2)sc(=O)n1Cc1ccc(S(=O)(=O)N(C)C)cc1 | > 6.41 µM | IC50 (PBLUC_HILL_SLOPE 9.17, PBLUC_R_SQUARED 0.333, read-out: LUCIFERASE INFECTION ASSAY - IC50): 5.25 µM |
| COc1ccc(CC(N)c2csc(NC(=O)c3cccc(OC(F)(F)F)c3)n2)cc1 (stereo not given) | 7.48 µM | IC50 (PBLUC_HILL_SLOPE 9.24, PBLUC_R_SQUARED 0.637, read-out: LUCIFERASE INFECTION ASSAY - IC50): 5.89 µM |
| Cc1cc(C(=O)Cn2cnc3ccccc32)c(C)n1-c1ccccn1 | > 10 µM | IC50 (PBLUC_HILL_SLOPE 9.42, PBLUC_R_SQUARED 0.321, read-out: LUCIFERASE INFECTION ASSAY - IC50): 9.29 µM |
| Cc1oc(-c2cccs2)nc1CC(=O)NNC(=O)CC12CC3CC(CC(C3)C1)C2 | 4.57 µM | IC50 (PBLUC_HILL_SLOPE 9.4, PBLUC_R_SQUARED 0.433, read-out: LUCIFERASE INFECTION ASSAY - IC50): 3.62 µM |
| c1ccc2c(Sc3ncnc4sccc34)cccc2c1 | > 11.2 µM | IC50 (PBLUC_HILL_SLOPE 9.33, PBLUC_R_SQUARED 0.332, read-out: LUCIFERASE INFECTION ASSAY - IC50): > 11.2 µM |
| NC(=O)c1cccc(-c2cn3c(-c4cccc(O)c4)cnc3cn2)c1 | > 9.99 µM | IC50 (PBLUC_HILL_SLOPE 9.23, PBLUC_R_SQUARED 0.539, read-out: LUCIFERASE INFECTION ASSAY - IC50): 8.89 µM |
| CC(C)(C)c1csc(NC(=O)C2CCCN2S(=O)(=O)c2ccc(Br)s2)n1 (stereo not given) | > 10 µM | IC50 (PBLUC_HILL_SLOPE 9.23, PBLUC_R_SQUARED 0.508, read-out: LUCIFERASE INFECTION ASSAY - IC50): 9.84 µM |
| O=C(NC1CC1)c1ccc(CN(Cc2ccco2)Cc2nc(-c3ccc(F)cc3)no2)cc1 | 0.482 µM | IC50 (PBLUC_HILL_SLOPE 9.42, PBLUC_R_SQUARED 0.908, read-out: LUCIFERASE INFECTION ASSAY - IC50): 0.382 µM |
| Nc1ccc(-c2cn3c(-c4cccc(O)c4)cnc3cn2)cn1 | > 10.9 µM | IC50 (PBLUC_HILL_SLOPE 9.28, PBLUC_R_SQUARED 0.463, read-out: LUCIFERASE INFECTION ASSAY - IC50): 9.03 µM |
| Fc1cccc(-c2cnc3cnc(-c4ccc(CNc5ccccc5)cc4)cn23)c1 | > 8.37 µM | IC50 (PBLUC_HILL_SLOPE 9.4, PBLUC_R_SQUARED 0.212, read-out: LUCIFERASE INFECTION ASSAY - IC50): > 8.37 µM |
| CCCCCCCCc1nnc(NC(=O)c2nccnc2N)s1 | 4.58 µM | IC50 (PBLUC_HILL_SLOPE 9.5, PBLUC_R_SQUARED 0.438, read-out: LUCIFERASE INFECTION ASSAY - IC50): 3.63 µM |
| COc1ccc(-c2cnc3cnc(-c4cccc(NS(C)(=O)=O)c4)cn23)cc1 | 3.7 µM | IC50 (PBLUC_HILL_SLOPE 9.6, PBLUC_R_SQUARED 0.49, read-out: LUCIFERASE INFECTION ASSAY - IC50): 2.94 µM |
| CSc1sc(C#N)c(C)c1-c1ccon1 | > 14 µM | IC50 (PBLUC_HILL_SLOPE 9.35, PBLUC_R_SQUARED 0.116, read-out: LUCIFERASE INFECTION ASSAY - IC50): > 14 µM |
| Cc1c(-c2ccc(Cl)c(S(=O)(=O)N(C)c3ccccc3)c2)oc2ccc(F)cc2c1=O | 4.45 µM | IC50 (PBLUC_HILL_SLOPE 9.42, PBLUC_R_SQUARED 0.55, read-out: LUCIFERASE INFECTION ASSAY - IC50): 3.52 µM |
| COc1ccc(-c2csc3nc(-c4cccnc4)nc(NCCN4CCOCC4)c23)cc1OC | > 10 µM | IC50 (PBLUC_HILL_SLOPE 9.41, PBLUC_R_SQUARED 0.036, read-out: LUCIFERASE INFECTION ASSAY - IC50): 9.3 µM |
| O=C(NCc1ccc(F)c(Cl)c1)Nc1csc([N+](=O)[O-])c1 | > 10 µM | IC50 (PBLUC_HILL_SLOPE 9.52, PBLUC_R_SQUARED 0.452, read-out: LUCIFERASE INFECTION ASSAY - IC50): 8.04 µM |
| O=C(C[n+]1ccc(NC(=O)c2ccccc2)cc1)c1ccc(F)cc1 | > 7.95 µM | IC50 (PBLUC_HILL_SLOPE 9.15, PBLUC_R_SQUARED 0.444, read-out: LUCIFERASE INFECTION ASSAY - IC50): 6.42 µM |
| CCCNC(=O)c1c(NC(=O)c2cccc(F)c2)nc2ccc(C)cn12 | > 9.31 µM | IC50 (PBLUC_HILL_SLOPE 9.17, PBLUC_R_SQUARED 0.612, read-out: LUCIFERASE INFECTION ASSAY - IC50): 7.79 µM |
| Cc1sc2nc(-c3cccs3)nc(N3CCCN(CC(=O)NC(C)C)CC3)c2c1C | > 10 µM | IC50 (PBLUC_HILL_SLOPE 9.52, PBLUC_R_SQUARED 0.368, read-out: LUCIFERASE INFECTION ASSAY - IC50): 8.07 µM |

| SMILES | IC90 | also measured |
| --- | --- | --- |
| COc1cc(OC)cc(C(NS(=O)(=O)c2cc(C(F)(F)F)ccc2Cl)c2nccn2C)c1 (stereo not given) | > 10 µM | IC50 (PBLUC_HILL_SLOPE 9.29, PBLUC_R_SQUARED 0.399, read-out: LUCIFERASE INFECTION ASSAY - IC50): 8.07 µM |
| Cc1ccc(Sc2ccc(NC(=S)NCC3CCCO3)cc2)c(C)c1 (stereo not given) | > 10 µM | IC50 (PBLUC_HILL_SLOPE 9.48, PBLUC_R_SQUARED 0.239, read-out: LUCIFERASE INFECTION ASSAY - IC50): 8.41 µM |
| CCN(c1ccccc1)S(=O)(=O)c1ccc(OCC(=O)N(C)Cc2nc3ccccc3s2)cc1 | > 10 µM | IC50 (PBLUC_HILL_SLOPE 9.53, PBLUC_R_SQUARED 0.61, read-out: LUCIFERASE INFECTION ASSAY - IC50): 9.27 µM |
| O=C(c1cc2c(=O)n3ccccc3nc2s1)N(c1ccccn1)C1CCCCC1 | > 10 µM | IC50 (PBLUC_HILL_SLOPE 9.6, PBLUC_R_SQUARED 0.179, read-out: LUCIFERASE INFECTION ASSAY - IC50): 9.45 µM |
| COc1ccc(-c2cc3c(cn2)nc(NCc2cccc(C)c2)n3C)cc1 | > 10 µM | IC50 (PBLUC_HILL_SLOPE 9.11, PBLUC_R_SQUARED 0.402, read-out: LUCIFERASE INFECTION ASSAY - IC50): 9.46 µM |
| COc1ccc(-c2cnc3cnc(-c4ccc(C(=O)NC5CC5)cc4)cn23)cc1 | 3.59 µM | IC50 (PBLUC_HILL_SLOPE 9.57, PBLUC_R_SQUARED 0.525, read-out: LUCIFERASE INFECTION ASSAY - IC50): 2.85 µM |
| CCCn1nc(C(=O)Nc2cccc(-c3nc4ccccc4[nH]3)c2)c2ccccc2c1=O | 4.7 µM | IC50 (PBLUC_HILL_SLOPE 9.6, PBLUC_R_SQUARED 0.205, read-out: LUCIFERASE INFECTION ASSAY - IC50): 3.74 µM |
| CCc1cc2c(COC(=O)c3cc(C(C)=O)cn3C)cc(=O)oc2cc1O | > 10 µM | IC50 (PBLUC_HILL_SLOPE 9.37, PBLUC_R_SQUARED 0.164, read-out: LUCIFERASE INFECTION ASSAY - IC50): 8.69 µM |
| Cc1ccc(Cn2c(NCc3cccs3)nc3ccccc32)cc1 | > 9.9 µM | IC50 (PBLUC_HILL_SLOPE 9.45, PBLUC_R_SQUARED 0.348, read-out: LUCIFERASE INFECTION ASSAY - IC50): 8.16 µM |
| Cc1csc2nc(CNC(c3ccc(C4CCCCC4)cc3)C(C)C)cc(=O)n12 (stereo not given) | 4.73 µM | IC50 (PBLUC_HILL_SLOPE 9.21, PBLUC_R_SQUARED 0.523, read-out: LUCIFERASE INFECTION ASSAY - IC50): 3.73 µM |
| CC(C)Oc1ccc(C(=O)NCC(=O)Nc2nc3c(s2)CCCC3)cc1 | 4.24 µM | IC50 (PBLUC_HILL_SLOPE 9.11, PBLUC_R_SQUARED 0.281, read-out: LUCIFERASE INFECTION ASSAY - IC50): 3.33 µM |
| Cc1ccc(C(=O)Nc2nc3cc4c(cc3s2)OCCO4)s1 | > 10 µM | IC50 (PBLUC_HILL_SLOPE 9.57, PBLUC_R_SQUARED 0.436, read-out: LUCIFERASE INFECTION ASSAY - IC50): 8.59 µM |
| CNC(=O)c1ccc(CN(Cc2ccco2)Cc2cc3ccc(C)c(C)c3nc2Cl)cc1 | 1.48 µM | IC50 (PBLUC_HILL_SLOPE 9.58, PBLUC_R_SQUARED 0.657, read-out: LUCIFERASE INFECTION ASSAY - IC50): 0.741 µM |
| CNCCCNCc1cccc(OC)c1OCc1ccc(Cl)cc1 | > 9.46 µM | IC50 (PBLUC_HILL_SLOPE 9.3, PBLUC_R_SQUARED 0.597, read-out: LUCIFERASE INFECTION ASSAY - IC50): 8.76 µM |
| CC(C)(C)c1ccc(-c2nnc(SCc3ccccc3)n2-c2cccc(C(F)(F)F)c2)cc1 | > 7.06 µM | IC50 (PBLUC_HILL_SLOPE 9.35, PBLUC_R_SQUARED 0.201, read-out: LUCIFERASE INFECTION ASSAY - IC50): 6.61 µM |
| O=C(Nc1nc(C23CC4CC(CC(C4)C2)C3)cs1)c1cnccn1 | > 10 µM | IC50 (PBLUC_HILL_SLOPE 9.13, PBLUC_R_SQUARED 0.249, read-out: LUCIFERASE INFECTION ASSAY - IC50): 8.02 µM |
| Cc1ccccc1-c1ccc(CN2CCc3c(c(C(=O)NCc4ccccc4)nn3CCO)C2)cc1 | 2.98 µM | IC50 (PBLUC_HILL_SLOPE 9.2, PBLUC_R_SQUARED 0.549, read-out: LUCIFERASE INFECTION ASSAY - IC50): 2.35 µM |
| CCC(=O)Nc1ccc(CNC(=O)N2CCN(c3ccccc3C)CC2)cc1 | 1.73 µM | IC50 (PBLUC_HILL_SLOPE 9.1, PBLUC_R_SQUARED 0.639, read-out: LUCIFERASE INFECTION ASSAY - IC50): 1.36 µM |
| COc1ccc(Nc2nccc3c2cc(-c2ccccc2OC)n3C)cn1 | 4.48 µM | IC50 (PBLUC_HILL_SLOPE 9.12, PBLUC_R_SQUARED 0.328, read-out: LUCIFERASE INFECTION ASSAY - IC50): 3.52 µM |
| Cn1c(Sc2ncnc3sccc23)nc2ccccc21 | 5.38 µM | IC50 (PBLUC_HILL_SLOPE 9.4, PBLUC_R_SQUARED 0.756, read-out: LUCIFERASE INFECTION ASSAY - IC50): 4.26 µM |
